The test system of series [1] is patients with symptomatic knee OA. Nature of the series: single group, open-label study of weekly intra-articular injections in outpatients with symptomatic knee OA. Type of series: in vivo, human. The following applies: for WOMAC score: baseline 5±2, p<0.001. The protocol:
The efficacy of treatment was determined by a validated clinical test method and side effects recorded. This was a single group, open-label study, including outpatients of both sexes, aged between 18 and 85 years, with symptomatic knee OA. All patients (25) underwent weekly intra-articular injections of perfluorodecalin for 5 consecutive weeks and were followed-up for 10 additional weeks. The safety and tolerability profile (primary end-point) was assessed by adverse event reporting. The secondary endpoint was efficacy evaluated by changes in the Western Ontario and McMaster Universities (WOMAC) score vs. baseline. Patient and physician satisfaction were also recorded.

For series [2] the following is noted: cited from earlier work.
For series [3] the following is noted: cited from earlier work. The source holds these as a separate data set.

As to `FC1(F)C(F)(F)C(F)(F)C2(F)C(F)(F)C(F)(F)C(F)(F)C(F)(F)C2(F)C1(F)F` (centres unmarked) [Perfluorodecalin], in series [1] (25 patients, 5 weekly intra-articular injections, 10 additional weeks follow-up), the “serious treatment-related adverse events” value is “no serious treatment-related adverse events were reported”. Also, in series [1] (25 patients, weekly intra-articular injections for 5 consecutive weeks), the “most frequent adverse event: pain at the injection site” value is on record as 10 % of the injections. Also, in series [1] (after intra-articular injection), the “duration of relief of pain, on average” value was “one week”. Moreover, the “carry-over effect after the last injection” value in series [1] (based on sustained improvements in WOMAC score and subscores) is on record as “at least 3 weeks”. In addition, the WOMAC score in series [1] (end of the injection series, week 6) is 2±1.5. The “WOMAC subscore 'pain'” value in series [1] (from week 4) is “significantly reduced”. Also, in series [1] (from week 6), the “WOMAC subscore 'physical function'” value was “significantly reduced” and the “WOMAC subscore 'stiffness'” value was “significantly reduced”. Further, the “safety and tolerability profile” value in series [1] (intra-articular, adverse event reporting) is recorded as “generally well tolerated”. The compound also showed a WOMAC score in series [1] (within the first 2 weeks of treatment) of 3±2. Further, the “solubility in water and in traditional organic solvents” value in series [2] is reported as “insoluble”. Moreover, in series [3] (37° C.), the “Vapor pressure at 37° C.” value is reported as 14 mm Hg. Also, in series [3], the CO2 solubility is given as 1400 mL/L and the O2 solubility is 490 mL/L.

The values above are taken from US20070142480A1, “Alleviation of pain in osteoarthritis by means of intra-articular implantation of perfluorodecalin” (priority 2005, published 2007).
